# Test results published in US20260077000A1, “METABOLIC MODULATION OF INTRATUMORAL CHOLESTEROL WITH ENGINEERED BACTERIA FOR THE TREATMENT OF CANCERS” (Hong Kong Baptist University, priority 2024, published 2026).
# Target: recombinant extracellular domain of EGFR (EGFR-ECD) (Homo sapiens, UniProt P00533)
# Experiment: Microscale thermophoresis (MST), EGFR-ECD binding
# Procedure: Recombinant human protein was labeled with a Monolith NT Protein Labeling Kit RED-NHS (Nanotemper, Munich, Germany) and diluted to 50 nM with HEPES buffer (10 mM HEPES, 150 mM NaCl, 0.05% Tween). […] Samples were incubated at room temperature for 5 minutes. The mixtures were centrifuged at 16,000×g for 5 minutes and loaded into capillaries. Microscale thermophoresis measurements were performed using a Monolith NT.115 (Nanotemper, Munich, Germany).
# Sequence of recombinant extracellular domain of EGFR (EGFR-ECD) (P00533 25-645 limits assumed): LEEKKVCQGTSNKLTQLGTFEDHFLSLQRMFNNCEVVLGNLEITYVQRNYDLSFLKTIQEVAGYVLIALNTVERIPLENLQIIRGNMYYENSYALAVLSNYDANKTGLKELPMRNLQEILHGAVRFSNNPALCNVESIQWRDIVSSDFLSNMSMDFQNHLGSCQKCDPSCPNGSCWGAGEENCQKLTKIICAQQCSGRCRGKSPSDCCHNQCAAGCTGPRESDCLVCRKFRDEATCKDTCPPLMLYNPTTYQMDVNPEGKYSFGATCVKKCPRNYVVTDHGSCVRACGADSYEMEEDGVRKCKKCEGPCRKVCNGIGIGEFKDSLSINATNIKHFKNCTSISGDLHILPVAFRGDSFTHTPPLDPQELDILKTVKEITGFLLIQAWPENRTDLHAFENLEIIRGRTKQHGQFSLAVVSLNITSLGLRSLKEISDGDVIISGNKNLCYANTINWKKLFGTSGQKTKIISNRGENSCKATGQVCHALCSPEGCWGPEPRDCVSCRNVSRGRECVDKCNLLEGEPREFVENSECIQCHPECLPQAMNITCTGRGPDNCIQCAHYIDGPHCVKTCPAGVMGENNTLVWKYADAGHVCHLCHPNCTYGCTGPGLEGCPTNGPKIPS
compound,measurement,value
"CC(C)CCC[C@@H](C)[C@H]1CC[C@H]2[C@@H]3CCC4=CC(=O)CC[C@]4(C)[C@H]3CC[C@]12C [4-C-3, 4-cholesten-3-one]",Kd,5.6 µM
